We go through 13 compounds from patent US9115137B2, “2,3,4,5-tetrahydro-1H-pyrido[4,3-B]indole compounds and methods of use thereof” (priority 2008, dated 2015).

Assay [1] concerns the target T1, human recombinant adrenergic α1D receptor (Homo sapiens, UniProt P25100).
T1 construct: expressed in transfected cells; host or cells: HEK-293 cells
T1 sequence (P25100 1-572): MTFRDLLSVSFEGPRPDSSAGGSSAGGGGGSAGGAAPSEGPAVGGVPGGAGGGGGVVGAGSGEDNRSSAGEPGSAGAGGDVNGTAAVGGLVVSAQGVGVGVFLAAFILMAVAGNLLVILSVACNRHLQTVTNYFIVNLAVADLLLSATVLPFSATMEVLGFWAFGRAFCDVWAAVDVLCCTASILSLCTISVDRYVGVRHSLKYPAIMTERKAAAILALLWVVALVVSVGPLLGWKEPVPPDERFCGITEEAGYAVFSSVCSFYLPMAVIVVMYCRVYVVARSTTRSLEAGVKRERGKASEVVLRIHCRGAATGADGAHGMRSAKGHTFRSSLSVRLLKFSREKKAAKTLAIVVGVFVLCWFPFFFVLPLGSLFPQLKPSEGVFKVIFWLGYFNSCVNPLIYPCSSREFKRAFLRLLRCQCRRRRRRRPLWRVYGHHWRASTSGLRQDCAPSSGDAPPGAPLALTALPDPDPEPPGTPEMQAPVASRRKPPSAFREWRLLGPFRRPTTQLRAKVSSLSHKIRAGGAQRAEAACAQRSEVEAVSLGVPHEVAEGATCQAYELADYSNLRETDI
Kind of assay: Adrenergic α1D radioligand binding ([3H]Prozosin). To be noted: compound at 1 μM; HEK-293 cells; read-out: Adrenergic (1 μM) α1D, percent inhibition of specific binding. The procedure:
To evaluate in radioligand binding assays the activity of compounds of the invention, human recombinant adrenergic α1D receptor expressed in human embryonic kidney (HEK-293) cells (Kenny, B. A. et al. Br. J. Pharmacol. 115(6):981, 1995) in a 50 mM Tris-HCl buffer, pH 7.4, was used. Compounds of invention were incubated with 0.6 nM [^3H]Prozosin for 60 minutes at 25° C. Non-specific binding was estimated in the presence of 10 μM phentolamine. Receptor proteins were filtered and washed, the filters were then counted to determine [^3H]Prozosin specifically bound. Compounds were screened at 1 μM or lower, using 1% DMSO as vehicle. Biochemical assay results are presented as the percent inhibition of specific binding in Table 6.

The target of assay [2] is T2, human recombinant adrenergic α2B receptor (Homo sapiens, UniProt P18089).
T2 construct: expressed in transfected cells; host or cells: CHO-K1 cells
T2 sequence (P18089 1-450): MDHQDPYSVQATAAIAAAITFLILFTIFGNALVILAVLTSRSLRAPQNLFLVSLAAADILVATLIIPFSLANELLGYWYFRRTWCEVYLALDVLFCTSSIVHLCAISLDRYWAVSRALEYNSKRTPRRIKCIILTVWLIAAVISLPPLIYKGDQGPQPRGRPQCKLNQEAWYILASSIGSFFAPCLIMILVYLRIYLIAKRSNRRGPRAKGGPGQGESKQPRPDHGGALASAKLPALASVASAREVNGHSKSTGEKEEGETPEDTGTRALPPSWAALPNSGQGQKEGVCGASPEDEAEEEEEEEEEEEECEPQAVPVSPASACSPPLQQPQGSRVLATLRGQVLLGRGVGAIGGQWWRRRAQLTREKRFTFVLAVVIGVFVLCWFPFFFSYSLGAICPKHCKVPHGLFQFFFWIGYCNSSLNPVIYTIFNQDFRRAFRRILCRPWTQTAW
Description: Adrenergic α2B radioligand binding ([3H]Rauwolscine). As to conditions: compound at 1 μM; CHO-K1 cells; read-out: Adrenergic (1 μM) α2B, percent inhibition of specific binding. How it is done: To evaluate in radioligand binding assays the activity of compounds of the invention, human recombinant adrenergic α2B receptor expressed in Chinese hamster ovary (CHO-K1) cells (Uhlen S et al. Eur. J. Pharmacol. 343(1):93, 1998) in a modified Tris-HCl buffer (50 mM Tris-HCl, pH 7.4, 12.5 mM MgCl2, 1 mM EDTA, 0.2% BSA) was used. Compounds of the invention were incubated with 2.5 nM [3H]Rauwolscine for 60 minutes at 25° C. Non-specific binding was estimated in the presence of 10 μM Prozosin. Receptor proteins were filtered and washed, the filters were then counted to determine [^3H]Rauwolscine specifically bound. Compounds were screened at 1 μM or lower, using 1% DMSO as vehicle. Biochemical assay results are presented as the percent inhibition of specific binding in Table 6.

Assay [3] concerns the target T3, human recombinant histamine H2 receptor (Homo sapiens, UniProt P25021).
T3 construct: expressed in transfected cells; host or cells: CHO-K1 cells
Kind of assay: Histamine H2 radioligand binding ([125I]aminopotentidine). To be noted: compound at 1 μM; CHO K1 cells; read-out: Histamine Binding (1 μM) H2, percent inhibition of specific binding. The procedure: To evaluate in radioligand binding assays the activity of compounds of the invention, human recombinant histamine H2 receptor expressed in Chinese hamster ovary (CHO) K1 cells (Ruat, M., Proc. Natl. Acad. Sci. USA. 87(5):1658, 1990) in a 50 mM Phosphate buffer, pH 7.4 was used. Compounds of the invention were incubated with 0.1 nM [^125I]aminopotentidine for 120 minutes at 25° C. Non-specific binding was estimated in the presence of 3 μM Tiotidine. Receptor proteins were filtered and washed, the filters were then counted to determine [^125I]Aminopotentidine specifically bound. Compounds were screened at 1 μM, using 1% DMSO as vehicle. Biochemical assay results are presented as the percent inhibition of specific binding in Table 5.

T3 sequence (P25021 whole entry): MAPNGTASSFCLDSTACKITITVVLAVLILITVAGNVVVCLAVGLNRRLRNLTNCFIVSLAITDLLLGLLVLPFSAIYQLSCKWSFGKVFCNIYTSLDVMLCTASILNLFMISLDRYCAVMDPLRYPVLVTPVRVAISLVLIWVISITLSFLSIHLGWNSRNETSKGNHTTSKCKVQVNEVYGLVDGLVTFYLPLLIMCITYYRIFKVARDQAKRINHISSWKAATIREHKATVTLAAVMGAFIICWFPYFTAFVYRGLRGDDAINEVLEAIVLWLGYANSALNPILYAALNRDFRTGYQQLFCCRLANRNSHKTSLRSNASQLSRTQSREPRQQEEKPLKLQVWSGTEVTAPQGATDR

By inhibition is commonly meant the relative decrease from the control value, in per cent. As to `Cc1ccc2c(c1)c1c(n2CCC(=O)NC(C)(C)C)CCN(C)C1` [Compound 28], the inhibition at 1 µM in assay [1] was determined as 58%; in assay [2] it was 85%; in assay [3], 18%.

Regarding `Cc1ccc2c(c1)c1c(n2CCC(=O)Nc2ccccc2)CCN(C)C1` [Compound 29], the inhibition at 1 µM in assay [1] turned out to be 74%; in assay [2] it was 79%; in assay [3], 34%.

Turning to `Cc1ccc2c(c1)c1c(n2CCC(=O)NCC2CCCCC2)CCN(C)C1` [Compound 30, N-(cyclohexylmethyl)-3-(1,2,3,4-tetrahydro-2,8-dimethylpyrido[4,3-b]indol-5-yl)propanamide], the inhibition at 1 µM in assay [1] was determined as 73%; in assay [2] it was 104%; in assay [3], 41%.

For the compound `CN1CCc2c(c3cc(Cl)ccc3n2CCC(=O)NC2CCCC2)C1` [Compound 31, 3-(8-chloro-1,2,3,4-tetrahydro-2-methylpyrido[4,3-b]indol-5-yl)-N-cyclopentylpropanamide], the inhibition at 1 µM is 61% in assay [1], 91% in assay [2] and 20% in assay [3].

On to `CN1CCc2c(c3cc(Cl)ccc3n2CC(N)=O)C1` [Compound 45, 2-(8-chloro-1,2,3,4-tetrahydro-2-methylpyrido[4,3-b]indol-5-yl)acetamide], for which the inhibition at 1 µM in assay [1] stood at 12%; in assay [2] it was 18%; in assay [3] it was 3%.

In the case of `Cc1ccc2c(c1)c1c(n2CCC(N)=O)CCN(C)C1` [Compound 46, 3-(1,2,3,4-tetrahydro-2,8-dimethylpyrido[4,3-b]indol-5-yl)propanamide], the inhibition at 1 µM in assay [1] was 7%; in assay [2], 46%; in assay [3], -5%.

With `Cc1ccc2c(c1)c1c(n2CCC(=O)Nc2ccc(F)cc2)CCN(C)C1` [Compound 47, N-(4-fluorophenyl)-3-(1,2,3,4-tetrahydro-2,8-dimethylpyrido[4,3-b]indol-5-yl)propanamide], the inhibition at 1 µM in assay [1] was 80%; in assay [2] it was 96%; in assay [3], 53%.

For `CN1CCc2c(c3cc(Cl)ccc3n2CC(=O)N(C)C)C1` [Compound 48, 2-(8-chloro-1,2,3,4-tetrahydro-2-methylpyrido[4,3-b]indol-5-yl)-N,N-dimethylacetamide], the values for the inhibition at 1 µM in assay [1], in assay [2] and in assay [3] were 10%, 13% and 4%, respectively.

For the compound `CN1CCc2c(c3cc(Cl)ccc3n2CCC(=O)N(C)C)C1` [Compound 49, 3-(8-chloro-1,2,3,4-tetrahydro-2-methylpyrido[4,3-b]indol-5-yl)-N,N-dimethylpropanamide], the values for the inhibition at 1 µM in assay [1], in assay [2] and in assay [3] were 18%, 76% and 5%, respectively.

On to `Cc1ccc2c(c1)c1c(n2CCNC(=O)c2ccncc2)CCN(C)C1` [Compound 50, N-(2-(1,2,3,4-tetrahydro-2,8-dimethylpyrido[4,3-b]indol-5-yl)ethyl)isonicotinamide], for which the inhibition at 1 µM was found to be 37% in assay [1], 70% in assay [2] and 9% in assay [3].

Consider `Cc1ccc2c(c1)c1c(n2CC(=O)Nc2ccc(F)cc2)CCN(C)C1` [Compound 51, N-(4-fluorophenyl)-2-(1,2,3,4-tetrahydro-2,8-dimethylpyrido[4,3-b]indol-5-yl)acetamide], for which the values for the inhibition at 1 µM in assay [1], in assay [2] and in assay [3] were 29%, 82% and 8%, respectively.

As to `CCCCOC(=O)Cn1c2c(c3cc(Cl)ccc31)CN(C)CC2` [Compound 52, butyl 2-(8-chloro-1,2,3,4-tetrahydro-2-methylpyrido[4,3-b]indol-5-yl)acetate], the inhibition at 1 µM in assay [1] stood at 58%; in assay [2], 89%; in assay [3], 23%.

For the compound `Cc1ccc2c(c1)c1c(n2CCC(=O)NC(C)C)CCN(C)C1` [Compound 53], the inhibition at 1 µM is 62% in assay [1], 86% in assay [2] and 12% in assay [3].
